How the values were obtained:
[1] = target: T1, mineralocorticoid receptor (Rattus norvegicus, UniProt P22199); assay: Biological activity of spironolactone: luciferase reporter in H9C2 cells incubated with aldosterone; type: cell-based; settings: FIG. 12
T1 construct: H9C2 cells are myoblasts genetically modified by the incorporation of the reporter gene encoding luciferase; endogenous in cells; host or cells: H9C2 myoblasts carrying a luciferase reporter
T1 sequence (P22199 1-981): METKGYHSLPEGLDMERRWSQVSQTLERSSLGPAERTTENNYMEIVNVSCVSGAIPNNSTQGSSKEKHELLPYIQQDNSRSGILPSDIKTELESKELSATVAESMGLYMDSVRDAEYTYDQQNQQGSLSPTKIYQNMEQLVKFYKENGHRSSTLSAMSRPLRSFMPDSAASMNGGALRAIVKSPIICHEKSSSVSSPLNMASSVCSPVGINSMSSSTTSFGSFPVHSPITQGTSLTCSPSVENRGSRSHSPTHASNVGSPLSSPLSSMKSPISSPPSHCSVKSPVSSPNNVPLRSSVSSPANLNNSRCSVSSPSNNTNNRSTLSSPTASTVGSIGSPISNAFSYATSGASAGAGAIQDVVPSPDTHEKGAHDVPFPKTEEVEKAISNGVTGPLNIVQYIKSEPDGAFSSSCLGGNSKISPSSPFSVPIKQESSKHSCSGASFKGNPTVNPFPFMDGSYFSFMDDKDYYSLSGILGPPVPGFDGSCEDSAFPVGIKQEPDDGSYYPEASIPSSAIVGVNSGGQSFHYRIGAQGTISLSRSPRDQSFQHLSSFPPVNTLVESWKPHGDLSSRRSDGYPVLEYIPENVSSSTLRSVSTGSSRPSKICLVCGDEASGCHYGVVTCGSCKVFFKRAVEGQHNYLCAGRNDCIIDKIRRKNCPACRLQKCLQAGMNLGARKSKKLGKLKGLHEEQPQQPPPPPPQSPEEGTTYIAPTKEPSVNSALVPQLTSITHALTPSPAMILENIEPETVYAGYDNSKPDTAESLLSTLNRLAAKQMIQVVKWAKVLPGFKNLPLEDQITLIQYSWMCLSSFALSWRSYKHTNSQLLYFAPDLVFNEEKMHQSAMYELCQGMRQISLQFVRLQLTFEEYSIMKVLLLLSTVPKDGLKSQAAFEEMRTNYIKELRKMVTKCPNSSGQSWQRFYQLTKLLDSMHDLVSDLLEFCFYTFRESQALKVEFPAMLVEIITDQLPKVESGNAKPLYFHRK
Experimental: The biological activity of the spironolactone was measured in the following manner: H9C2 cells are myoblasts genetically modified by the incorporation of the reporter gene encoding luciferase downstream of the promoter having sequences binding the complex of aldosterone plus its receptor. When aldosterone was added, luciferase was expressed and detected by bioluminescence. […] This inhibition reports the biological activity of the spironolactone on H9C2s incubated with aldosterone. The spironolactone activity was measured directly on the spironolactone releasing liquid originating from the different types of hydrogels tested.
FIG. 12 represents the biological activity of the spironolactone released from a hydrogel after 15 days of incubation in PBS (with changing of the buffer every day); when the following are used:
(2) a mixture of a material MB-S with aldosterone at approximately 10^−8 M,
(3) a mixture of a material MC-S with aldosterone at approximately 10^−8 M,
(4) a mixture of a material MA-S with aldosterone at approximately 10^−8 M,
(5) a negative control (well containing the culture medium without aldosterone),
(6) aldosterone at approximately 10^−8 M, and
(7) a mixture of aldosterone at approximately 10^−8 M and spironolactone at approximately 10^−6 M.

[2] = tested on: primary human dermal fibroblasts; assay: Toxicity of the materials: cell viability by metabolic test (AlamarBlue Assay); type: cell-based; settings: FIG. 11
Experimental: The toxicity of the materials was measured as follows: primary human dermal fibroblasts were seeded onto a culture plate. The composite hydrogels were then incubated with the fibroblasts for 1 or 6 days. The cell viability was measured by a metabolic test (AlamarBlue Assay®) and compared with that of control fibroblasts (without addition of composite hydrogel).
FIG. 11 represents the toxicity of the composite biomaterial of the invention M1-S on cells (fibroblasts) and by way of comparison: • the toxicity of a dry collagen material impregnated with spironolactone MB-S obtained from the dehydrated pure collagen material MA-HD as obtained in example 1.3 which was impregnated with a solution comprising approximately 10^−2 M of spironolactone in THF, rinsed and lyophilized in accordance with example 1.4 above, • the toxicity of a dry collagen material impregnated with PLGA MC-S obtained from the dehydrated pure collagen material MA-HD as obtained in example 1.3 which was impregnated with a solution comprising approximately 160 mg/ml of PLGA 30-60 kDa in THF, rinsed and lyophilized in accordance with example 1.4, and • the toxicity of a dry pure collagen material MA-S as obtained in example 1.3.
Moreover, C represents a negative control (well containing just the cells without hydrogel). […]

| Structure (SMILES) | production of luciferase (receptor activation) ([1]; aldosterone approximately 10^-8 M alone, conditions (6) versus negative control (5)) | toxicity on cells (in words) ([2]; 1 day and 6 days, compared with control) | cell viability (cells survived) ([2]; first day, relative to negative control C) [%] | production of luciferase (inhibition of aldosterone effect) ([1]; free spironolactone approximately 10^-6 M with aldosterone approximately 10^-8 M, conditions (7)) |
| --- | --- | --- | --- | --- |
| C[C@]12CCC(=O)C=C1CC[C@@H]1[C@@H]2[C@@H](O)C[C@]2(C=O)[C@@H](C(=O)CO)CC[C@@H]12 [aldosterone] | caused strong transcription | – | – | – |
| CC(=O)S[C@@H]1CC2=CC(=O)CC[C@]2(C)[C@H]2CC[C@@]3(C)[C@@H](CC[C@@]34CCC(=O)O4)[C@H]12 [spironolactone] | – | slight toxic effect | 74 | the effect of the aldosterone is inhibited |
